Source: patent publication US8232273B2, “Heterocyclic compounds and methods of use” (Genentech, Inc., priority 2008, dated 2012)
Like-named read-outs stand apart in the source and are kept apart here.

Key:
[1] = target: T1, Bcl-xL (GST-Bcl-xL) (Homo sapiens, UniProt Q07817); test: AlphaScreen Bcl-xL binding assay, competition with biotinylated Bim peptide; set-up: made in house; conditions: values listed in the order of Table 1; read-out: Alphascreen results (IC50) against the Bcl-xL protein
Excerpt: The measurement of competition of compounds of the invention with Bim26-mer for a Bcl-2 family protein binding site using an Alpha Screen Bcl-xL binding assay:
The BH3 proteins AlphaScreen™ assay was used to identify active small molecules Bcl-2 family protein screen, e.g., Bcl-xL, hmMcl-1 screen.
The beads come in close proximity when the protein and the peptides interact. Donor beads contain a photosensitiser that converts oxygen to an excited form of O2 at an excitation of 680 nm. Energy is transformed from the singlet oxygen and reacts with chemiluminescers on the acceptor bead, resulting in light emission at 520-620 nm. […] With this information, the IC50 of each compound was calculated
GST-Bcl-xL, GST-hmMcl-1 and biotinylated GST proteins were prepared in-house and were stored as stock solutions at −80° C. The biotinylated-Bak, and biotinylated-Bim peptides were purchased from Auspep and were stored as 500 μM stock solutions in 100% DMSO at −80° C. […] DMSO was purchased from AnalaR.
Compounds of the invention were prepared as 10 mM stocks with 100% DMSO on the day prior to performing the assay. […] To achieve a final compound concentration of 1 μM, in a separate matrical plate, 28 μL of 100% DMSO and 2 μL of 10 mM compound was added to a well, mixed well, 2 μL of this solution was taken and added to 38 μL of 100% DMSO. 20 μL of this solution was added to the test matrical plate. Several control compounds were included in the test plates. For the control wells 15 μL 100% DMSO only was added to the appropriate wells of each plate. The compound plates were then serially diluted 2 fold using the MiniTrak. Once titrations were complete, the compound plate was immediately covered with a foil seal to prevent evaporation.
The assay and bead buffers were prepared fresh. Each titrated compound plate was assayed in duplicate. The following volumes were sufficient to run 12 Proxiplates (4 assay plates run in duplicate in each of Bclxl, hmMcl and counter assays)
Protein and Peptide Preparation; and Assay Performance • 1. The assay and bead buffers were used to prepare the acceptor and donor solutions. ALPHASCREEN™ beads are light sensitive and therefore prepared in a darkened room. 2.5 μL of beads were added per 1 mL of buffer. • 2. The volume of protein or peptide to add was calculated using the following formula:
V2=Volume of stock protein/Peptide to add to Acceptor/Donor solution • 3. The assay components were prepared as separate Acceptor and Donor Solutions. The Acceptor Solution contained Acceptor beads and target protein, while the Donor Solution contained Donor beads and biotinylated peptide.
• 4. After the solutions were prepared, they were left to incubate for 30 minutes at room temperature to allow the beads to bind to the protein and the peptide. • 5. 50 μL of Bcl-xL solution, 50 μL of hmMcl-1 solution and 50 μL of biotinylated-GST were added into separate deep wells on an assay plate. A control 50 μL Assay/Bead buffer was added separate well plates (no protein). • 6. 50 μL of Bim solution and 50 μL of Bak solution were added into separate deep well plates. • 7. Transfer 0.3 μL it of sample from the compound plate into each assay plate. • 8. Incubated for 30 mins at RT, then add 5 μL of the Donor solution. After addition of the Donor solution, tapped plates gently and sealed individually with adhesive film. • 9.
The percent inhibition was calculated using the following equation:
[formula] • x=RFU obtained after compound treatment • μ^−=RFU obtained for the negative controls (no protein controls) • μ^+=RFU obtained for the positive controls (DMSO vehicle controls)

[2] = target: T1, Bcl-xL (GST-Bcl-xL); test: TR-FRET binding assay, competition with F-Bak for the Bcl-xL binding site
Experimental: The measurement of competition of compounds of the invention with F-Bak for a Bcl-2 family protein (Bcl-xL) binding site using a Time Resolved Fluorescence Resonance Energy Transfer (TR-FRET) binding assay:
Test compounds were serially diluted in DMSO starting at 50 μM (2× starting concentration; 10% DMSO) and 10 μt transferred into a 384-well plate.
The samples are then mixed on a shaker for 1 minute then incubated for an additional 2 hours at room temperature. For each assay plate, a probe/antibody and protein/antibody/probe mixture were included as a negative and a positive control, respectively. Fluorescence was measured on the Envision (Perkin Elmer) using a 340/35 nm excitation filter and 520/525 (F-Bak) and 495/510 nm (Tb-labeled anti-his antibody) emission filters. Dissociation constants (Ki) were determined using Wang's equation (see, Wang, Z. X. An exact mathematical expression for describing competitive binding of two different ligands to a protein molecule. FEBS Lett. 1995 360:111-114). The TR-FRET assay can be performed in the presence of varying concentrations of human serum (HS) or fetal bovine serum (FBS).

[3] = values listed in the order of Table 1, read-out: TR-FRET assay results (Ki), Bcl-xL

T1 sequence (Q07817 whole entry, species assumed): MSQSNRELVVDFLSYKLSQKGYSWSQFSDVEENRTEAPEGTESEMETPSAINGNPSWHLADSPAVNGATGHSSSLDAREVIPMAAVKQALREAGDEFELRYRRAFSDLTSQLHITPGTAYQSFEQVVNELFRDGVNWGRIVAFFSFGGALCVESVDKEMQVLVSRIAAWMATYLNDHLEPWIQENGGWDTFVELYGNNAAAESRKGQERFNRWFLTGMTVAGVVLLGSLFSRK

SMILES | Ki [2, 3] [nM] | further results
COc1ccc(COc2ccc(N3CCc4cccc(C(=O)Nc5nc6ccccc6s5)c4C3)nc2C(=O)O)cc1 [Compound 136, 6-(8-(benzo[d]thiazol-2-ylcarbamoyl)-3,4-dihydroisoquinolin-2(1H)-yl)-3-(4-methoxybenzyloxy)picolinic acid] | – | IC50 [1]: 19000 nM
O=C(Nc1nc2ccccc2s1)c1cccc2c1CN(c1ncc(Cl)c(C(=O)O)n1)CC2 [Compound 123, 2-(8-(benzo[d]thiazol-2-ylcarbamoyl)-3,4-dihydroisoquinolin-2(1H)-yl)-5-chloropyrimidine-4-carboxylic acid] | – | IC50 [1]: 4000 nM
O=C(CSc1ccccc1)Nc1ccc(N2CCc3cccc(C(=O)Nc4nc5ccccc5s4)c3C2)nc1C(=O)O [Compound 128, 6-(8-(benzo[d]thiazol-2-ylcarbamoyl)-3,4-dihydroisoquinolin-2(1H)-yl)-3-(2-(phenylthio)acetamido)picolinic acid] | – | IC50 [1]: 340 nM
O=C(Nc1nc2ccccc2s1)c1cccc2c1CN(c1ccc(CCCc3ccccc3)c(C(=O)O)n1)CC2 [Compound 137, 6-(8-(benzo[d]thiazol-2-ylcarbamoyl)-3,4-dihydroisoquinolin-2(1H)-yl)-3-(3-phenylpropyl)picolinic acid] | – | IC50 [1]: 30 nM
O=C(Nc1nc2ccccc2s1)c1cccc2c1CN(c1nc(C(=O)O)c(CCCOc3ccc(N4CCOCC4)cc3)s1)CC2 [Example 59, 2-[8-(Benzothiazol-2-ylcarbamoyl)-3,4-dihydro-1H-isoquinolin-2-yl]-5-[3-(4-morpholin-4-yl-phenoxy)-propyl]-thiazole-4-carboxylic acid] | 0.3 | –
N#Cc1c(-c2ccc(OCC#Cc3sc(N4CCc5cccc(C(=O)Nc6nc7ccccc7s6)c5C4)nc3C(=O)O)cc2)n[nH]c1N [Example 40, 5-(3-(4-(5-amino-4-cyano-1H-pyrazol-3-yl)phenoxy)prop-1-ynyl)-2-(8-(benzo[d]thiazol-2-ylcarbamoyl)-3,4-dihydroisoquinolin-2(1H)-yl)thiazole-4-carboxylic acid] | 0.4 | –
CN(C)CCCc1ccc(OCCCc2sc(N3CCc4cccc(C(=O)Nc5nc6ccccc6s5)c4C3)nc2C(=O)O)cc1 [Example 107, 2-(8-(benzo[d]thiazol-2-ylcarbamoyl)-3,4-dihydroisoquinolin-2(1H)-yl)-5-(3-(4-(3-(dimethylamino)propyl)phenoxy)propyl)thiazole-4-carboxylic acid] | 0.15 | –
O=C(Nc1nc2ccccc2s1)c1cccc2c1CN(c1nc(C(=O)O)c(CCCOc3cccc(-n4ncc5cncnc54)c3)s1)CC2 [Example 33] | 0.3 | –
CN(C)CCCNc1ncnc2c1cnn2-c1ccc(OCCCc2ccc(N3CCc4cccc(C(=O)Nc5nc6ccccc6s5)c4C3)nc2C(=O)O)cc1 [Example 92, 6-(8-(benzo[d]thiazol-2-ylcarbamoyl)-3,4-dihydroisoquinolin-2(1H)-yl)-3-(3-(4-(4-(3-(dimethylamino)propylamino)-1H-pyrazolo[3,4-d]pyrimidin-1-yl)phenoxy)propyl)picolinic acid] | 0.05 | –
CN1CCN(c2ccc(OCCCc3ccc(N4CCc5cccc(C(=O)Nc6nc7ccccc7s6)c5C4)nc3C(=O)O)c(F)c2)CC1 [Example 101, 6-(8-(benzo[d]thiazol-2-ylcarbamoyl)-3,4-dihydroisoquinolin-2(1H)-yl)-3-(3-(2-fluoro-4-(4-methylpiperazin-1-yl)phenoxy)propyl)picolinic acid] | 0.7 | –
N[C@H]1[C@@H]2CCC[C@H]1[C@@H](c1ccc(OCCCc3sc(N4CCc5cccc(C(=O)Nc6nc7ccccc7s6)c5C4)nc3C(=O)O)cc1)CC2 [Example 80, 5-(3-(4-((1S,2S,5R,9S)-9-aminobicyclo[3.3.1]nonan-2-yl)phenoxy)propyl)-2-(8-(benzo[d]thiazol-2-ylcarbamoyl)-3,4-dihydroisoquinolin-2(1H)-yl)thiazole-4-carboxylic acid] | 0.5 | –
O=C(Nc1nc2ccccc2s1)c1cccc2c1CN(c1nc(C(=O)O)c(CCCOc3ccc(C4=CSC5=NCCN45)cc3)s1)CC2 [Example 53, 2-(8-(benzo[d]thiazol-2-ylcarbamoyl)-3,4-dihydroisoquinolin-2(1H)-yl)-5-(3-(4-(5,6-dihydroimidazo[2,1-b]thiazol-3-yl)phenoxy)propyl)thiazole-4-carboxylic acid] | 0.05 | –
O=C(Nc1nc2ccccc2s1)c1cccc2c1CN(c1nc(C(=O)O)c(CCCOc3ccc(-c4cnn(CCN5CCOCC5)c4)cc3)s1)CC2 [Example 83, 2-(8-(benzo[d]thiazol-2-ylcarbamoyl)-3,4-dihydroisoquinolin-2(1H)-yl)-5-(3-(4-(1-(2-morpholinoethyl)-1H-pyrazol-4-yl)phenoxy)propyl)thiazole-4-carboxylic acid] | 0.05 | –
N#Cc1c(-c2cccc(OCC#Cc3sc(N4CCc5cccc(C(=O)Nc6nc7ccccc7s6)c5C4)nc3C(=O)O)c2)n[nH]c1N [Example 36, 5-(3-(3-(5-amino-4-cyano-1H-pyrazol-3-yl)phenoxy)prop-1-ynyl)-2-(8-(benzo[d]thiazol-2-ylcarbamoyl)-3,4-dihydroisoquinolin-2(1H)-yl)thiazole-4-carboxylic acid] | 5 | –
O=C(Nc1nc2ccccc2s1)c1cccc2c1CN(c1nc(C(=O)O)c(CCCCn3ccnc3)s1)CC2 [Example 72, 5-(4-(1H-imidazol-1-yl)butyl)-2-(8-(benzo[d]thiazol-2-ylcarbamoyl)-3,4-dihydroisoquinolin-2(1H)-yl)thiazole-4-carboxylic acid] | 3 | –
O=C(Nc1nc2ccccc2s1)c1cccc2c1CN(c1nc(C(=O)O)c(CCCOc3ccc(-c4ncnc5c(Br)csc45)cc3)s1)CC2 [Example 65] | 0.07 | –
CN(C)CC#Cc1ccc(OCCCc2sc(N3CCc4cccc(C(=O)Nc5nc6ccccc6s5)c4C3)nc2C(=O)O)cn1 [Example 57, 2-(8-(benzo[d]thiazol-2-ylcarbamoyl)-3,4-dihydroisoquinolin-2(1H)-yl)-5-(3-(6-(3-(dimethylamino)prop-1-ynyl)pyridin-3-yloxy)propyl)thiazole-4-carboxylic acid] | – | Ki ([2]; with 1% human serum (HS)): 0.07 nM
Cc1c(CN2CCN(C)CC2)cnn1-c1ccc(OCCCc2sc(N3CCc4cccc(C(=O)Nc5nc6ccccc6s5)c4C3)nc2C(=O)O)cc1 [Example 85, 2-(8-(benzo[d]thiazol-2-ylcarbamoyl)-3,4-dihydroisoquinolin-2(1H)-yl)-5-(3-(4-(5-methyl-4-((4-methylpiperazin-1-yl)methyl)-1H-pyrazol-1-yl)phenoxy)propyl)thiazole-4-carboxylic acid] | 0.05 | –
O=C(Nc1nc2ccccc2s1)c1cccc2c1CN(c1nc(C(=O)O)c(CCCOc3cc(F)c(NCCN4CCOCC4)cc3F)s1)CC2 [Example 115, 2-(8-(benzo[d]thiazol-2-ylcarbamoyl)-3,4-dihydroisoquinolin-2(1H)-yl)-5-(3-(2,5-difluoro-4-(2-morpholinoethylamino)phenoxy)propyl)thiazole-4-carboxylic acid] | 0.05 | –
